# Source: patent US9085561B2, “Cyclic urea- or lactam-substituted quinoxaline-type piperidines as ORL-1 modulators” (priority 2012, dated 2015)
# Assays:
# [1] = molecular target: human opioid receptor-like (ORL-1) (Homo sapiens, UniProt P41146); assay: In vitro ORL-1 receptor [35S]GTPγS functional assay; format: biochemical
# human CYP2D6 = human CYP2D6 (Homo sapiens, UniProt P10635); assay: Cytochrome P450 2D6 inhibition (dextromethorphan O-demethylation, pooled human hepatic microsome)
# [2] = molecular target: human kappa opioid receptor (Homo sapiens, UniProt P41145); assay: In vitro kappa-opioid receptor binding assay ([3H]-U69,593 displacement)
# Sequence of human kappa opioid receptor (P41145 whole entry): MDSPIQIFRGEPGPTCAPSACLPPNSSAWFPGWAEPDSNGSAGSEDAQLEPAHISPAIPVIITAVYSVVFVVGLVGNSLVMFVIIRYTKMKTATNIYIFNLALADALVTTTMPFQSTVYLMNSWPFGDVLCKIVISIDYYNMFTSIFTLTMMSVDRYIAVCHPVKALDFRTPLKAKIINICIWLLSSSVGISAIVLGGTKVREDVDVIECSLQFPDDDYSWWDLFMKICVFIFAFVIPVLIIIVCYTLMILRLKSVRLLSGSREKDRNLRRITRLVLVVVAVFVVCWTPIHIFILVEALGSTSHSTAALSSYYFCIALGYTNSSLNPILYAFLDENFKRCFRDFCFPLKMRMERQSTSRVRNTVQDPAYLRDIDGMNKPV
# Sequence of human CYP2D6 (P10635 whole entry): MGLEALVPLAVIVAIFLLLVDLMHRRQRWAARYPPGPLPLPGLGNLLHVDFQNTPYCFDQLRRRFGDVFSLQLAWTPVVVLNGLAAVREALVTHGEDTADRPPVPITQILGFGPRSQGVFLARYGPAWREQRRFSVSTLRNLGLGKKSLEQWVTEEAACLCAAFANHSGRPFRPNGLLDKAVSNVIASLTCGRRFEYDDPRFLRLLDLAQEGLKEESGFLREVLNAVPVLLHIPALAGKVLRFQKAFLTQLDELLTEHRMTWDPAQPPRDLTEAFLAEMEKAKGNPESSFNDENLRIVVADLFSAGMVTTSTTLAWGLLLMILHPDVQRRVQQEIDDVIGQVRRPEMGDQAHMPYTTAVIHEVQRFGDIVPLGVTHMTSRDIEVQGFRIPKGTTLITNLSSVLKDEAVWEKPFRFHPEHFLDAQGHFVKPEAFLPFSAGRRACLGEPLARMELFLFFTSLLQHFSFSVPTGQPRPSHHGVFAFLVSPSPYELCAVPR
# Sequence of human opioid receptor-like (ORL-1) (P41146 whole entry): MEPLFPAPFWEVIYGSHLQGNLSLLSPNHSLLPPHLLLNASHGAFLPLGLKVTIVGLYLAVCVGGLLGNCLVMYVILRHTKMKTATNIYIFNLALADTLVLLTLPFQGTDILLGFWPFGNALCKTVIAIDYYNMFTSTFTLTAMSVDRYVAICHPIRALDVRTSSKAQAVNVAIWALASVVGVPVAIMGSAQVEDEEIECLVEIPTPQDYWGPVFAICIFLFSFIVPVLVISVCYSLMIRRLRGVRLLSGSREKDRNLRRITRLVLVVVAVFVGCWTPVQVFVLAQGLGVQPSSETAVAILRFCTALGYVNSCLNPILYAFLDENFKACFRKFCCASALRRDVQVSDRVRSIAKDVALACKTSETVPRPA
Structure (SMILES),EC50 [1],IC50 (human CYP2D6),Ki [2]
"O=c1cnn(-c2nc3ccccc3n([C@H]3C[C@H]4COC[C@@H](C3)N4[C@@H]3C[C@@H]4CCCC[C@@H](C4)C3)c2=O)c(=O)[nH]1 [Compound P9b, 2-(4-((1R,5S,7 S)-9-((1R,6S,8s)-bicyclo[4.3.1]decan-8-yl)-3-oxa-9-azabicyclo[3.3.1]nonan-7-yl)-3-oxo-3,4-dihydroquinoxalin-2-yl)-1,2,4-triazine-3,5(2H,4H)-dione]",0.104 ± 0.043 µM,> 20 µM,13.1 µM
"Cc1nn(-c2nc3ccccc3n([C@H]3C[C@H]4CCC[C@@H](C3)N4[C@H]3C[C@@H]4CCC[C@@H](C4)C3)c2=O)c(=S)[nH]c1=O [Compound U001, 1-((1R,1′R,3r,3′R,5S,5′S)-[3,9′-bi(9′-azabicyclo[3.3.1]nonan)]-3′-yl)-3-(6-methyl-5-oxo-3-thioxo-4,5-dihydro-1,2,4-triazin-2(3H)-yl)quinoxalin-2(1H)-one]",> 20 µM,> 20 µM,–
"O=c1ncc(-c2nc3ccccc3n([C@H]3C[C@H]4CCC[C@@H](C3)N4[C@H]3C[C@@H]4CCC[C@@H](C4)C3)c2=O)c[nH]1 [Compound U048, 1-((1R,1′R,3r,3′R,5S,5′S)-[3,9′-bi(9′-azabicyclo[3.3.1]nonan)]-3′-yl)-3-(2-oxo-1,2-dihydropyrimidin-5-yl)quinoxalin-2(1H)-one]",> 20 µM,> 20 µM,–
"O=C(O)CCn1cccc(-c2nc3ccccc3n([C@H]3C[C@H]4CCC[C@@H](C3)N4[C@H]3C[C@@H]4CCC[C@@H](C4)C3)c2=O)c1=O [Compound U057, 3-(3-(4-((1R,1′R,3r,3′R,5S,5′S)-[3,9′-bi(9′-azabicyclo[3.3.1]nonan)]-3′-yl)-3-oxo-3,4-dihydroquinoxalin-2-yl)-2-oxopyridin-1(2H)-yl)propanoic acid]",> 20 µM,> 20 µM,–
"Nc1ccn(-c2nc3ccccc3n([C@H]3C[C@H]4CCC[C@@H](C3)N4[C@@H]3C[C@@H]4CCCC[C@@H](C4)C3)c2=O)c(=O)n1 [Compound U068, 3-(4-amino-2-oxopyrimidin-1(2H)-yl)-1-((1R,3R,5S)-9-((1R,6S,8s)-bicyclo[4.3.1]decan-8-yl)-9-azabicyclo[3.3.1]nonan-3-yl)quinoxalin-2(1H)-one]",> 20 µM,> 20 µM,–
"O=C(O)Cn1cccc(-c2nc3ccccc3n([C@H]3C[C@H]4CC[C@@H](C3)N4[C@H]3C[C@@H]4CCC[C@@H](C4)C3)c2=O)c1=O [Q13a(iii), 2-(3-(4-((1R,3R,5S)-8-((1R,3r,5S)-bicyclo[3.3.1]nonan-3-yl)-8-azabicyclo[3.2.1]octan-3-yl)-3-oxo-3,4-dihydroquinoxalin-2-yl)-2-oxopyridin-1(2H)-yl)acetic acid]",0.255 ± 0.042 µM,> 20 µM,–
"O=c1[nH]cc(F)cc1-c1nc2ccccc2n([C@H]2C[C@H]3CCC[C@@H](C2)N3[C@H]2C[C@@H]3CCC[C@@H](C3)C2)c1=O [R16a(i), 1-((1R,1′R,3r,3′R,5S,5′S)-[3,9′-bi(9′-azabicyclo[3.3.1]nonan)]-3′-yl)-3-(5-fluoro-2-oxo-1,2-dihydropyridin-3-yl)quinoxalin-2(1H)-one]",1.61 ± 0.441 µM,> 20 µM,–
